The text below walks through data of patent publication US5030647A, “Anti-inflammatory thienylbenzylamine compounds” (Boehringer Ingelheim Pharmaceuticals, Inc., priority 1990, dated 1991).

The structures appear in SMILES notation. Where a name gives a salt, the structure may show the parent alone. Read-outs that look alike come from different tables or passages of the source.

The experiment has as its system paw swelling. As to the kind of experiment: Reverse passive Arthus reaction, inhibition of paw swelling after oral dosing. Format: in vivo. The note with it: rats; for inhibition in vivo at 30 mg/kg / inhibition in vivo at 100 mg/kg / inhibition in vivo at 10 mg/kg: Rattus norvegicus, po; for inhibition in vivo at 100 mg/kg: 100 mg/kg oral; for inhibition in vivo at 10 mg/kg: 10 mg/kg oral. Here is the method: The reverse passive Arthus reaction is initiated by the interaction of antigen and antibody resulting in the formation of a precipitating immune complex, followed by fixation of complement, accumulation of leukocytes, edema and hemorrhage. The immunopathology of rheumatoid arthritis involves many of the parameters found in this reaction. Test groups (5 rats per group) are dosed orally with compounds one hour prior to the sub-plantar injection into the right hind paw of rabbit anti-ovalbumin antibody (50 μg/0.1 ml). Immediately afterwards, ovalbumin (Sigma, #5503) (5 mg/0.2 ml) is injected i.v. via the tail vein. The right hind paw volume is measured at hourly intervals, from one to four hours after the injection of the immune reactants. The change in paw volume for each animal is calculated by subtracting zero hour paw volume (before injection) from the paw volume at the time of measurement. The mean of these values is calculated for each group. Results are expressed in Table I below as percent inhibition of paw swelling compared to untreated controls.

The mark [1] stands for this setting: 2 h, 30 mg/kg oral, 2 hours, read-out: % INHIBITION (of paw swelling) HOUR 2.
The mark [2] stands for this setting: 3 h, 30 mg/kg oral, 3 hours, read-out: % INHIBITION (of paw swelling) HOUR 3.
[3] abbreviates: 4 h, 30 mg/kg oral, 4 hours, read-out: % INHIBITION (of paw swelling) HOUR 4.
Where [4] appears, read: 2 h, 2 hours, read-out: % INHIBITION (of paw swelling) HOUR 2.
[5] abbreviates: 3 h, 3 hours, read-out: % INHIBITION (of paw swelling) HOUR 3.
Setting [6] is: 4 h, 4 hours, read-out: % INHIBITION (of paw swelling) HOUR 4.

As for `CN(C)Cc1ccccc1C(O)c1cc(Br)cs1` (centres unmarked) [Compound 18, 4-bromo-2-[(2-dimethylaminomethylphenyl)hydroxymethyl]thiophene], the inhibition in vivo at 30 mg/kg under setting [1] was found to be 35%, the inhibition in vivo at 30 mg/kg under setting [2] amounted to 37% and the inhibition in vivo at 30 mg/kg under setting [3] is 40%.
Turning to `CN(C)Cc1ccccc1C(O)c1csc(I)c1` (centres unmarked) [Compound 28, 5-iodo-3-[(2-N,N-dimethylaminomethylphenyl)hydroxymethyl]thiophene hydrochloride], the inhibition in vivo at 30 mg/kg was 21% under setting [1], 0% under setting [2] and 13% under setting [3].
For the compound `CN(C)Cc1ccccc1C(O)c1c(Cl)sc(Cl)c1Cl` (centres unmarked) [Compound 31, 2,4,5-Trichloro-3-[(2-N,N-dimethylaminomethylphenyl)hydroxymethyl]thiophene hydrochloride], the inhibition in vivo at 30 mg/kg under setting [1] was found to be 44%, the inhibition in vivo at 30 mg/kg under setting [2] came to 32% and the inhibition in vivo at 30 mg/kg under setting [3] came to 0%.
In the case of `CN(C)Cc1ccccc1C(O)c1cscc1Br` (centres unmarked) [Compound 26, 4-bromo-3-[(2-N,N-dimethylaminomethylphenyl)hydroxymethyl]thiophene hydrochloride], the inhibition in vivo at 30 mg/kg was found to be 42% under setting [1], 25% under setting [2] and 6% under setting [3].
On to `CN(C)Cc1ccc(C(O)c2ccccc2CN(C)C)s1` (centres unmarked) [Compound 10, 5-N,N-dimethylaminomethyl-2-[2-(N,N-dimethylaminomethylphenyl)hydroxymethyl]thiophene], for which the inhibition in vivo at 30 mg/kg was determined as 55.6% under setting [1], 21.6% under setting [2] and 19.4% under setting [3].
In the case of `CN(C)Cc1ccccc1C(O)c1csc(Cl)c1Cl` (centres unmarked) [Compound 30, 4,5-dichloro-3-[(2-N,N-dimethylaminomethylphenyl)hydroxymethyl]thiophene hydrochloride], the inhibition in vivo at 30 mg/kg under setting [1] worked out at 47% and the inhibition in vivo at 30 mg/kg under setting [2] amounted to 36%.
As for `Cc1cc(Cl)sc1C(O)c1ccccc1CN(C)C` (centres unmarked) [Compound 13, 5-chloro-2-[(dimethylaminomethylphenyl)hydroxymethyl]-3-methylthiophene], the inhibition in vivo at 30 mg/kg by setting is: under setting [1], 66.8%; under setting [2], 24.1%; under setting [3], 7.3%. Moreover, the inhibition in vivo at 100 mg/kg amounted to 51.7% under setting [4], 28.6% under setting [5] and 3.3% under setting [6].
For the compound `CN(C)Cc1ccccc1C(=O)c1ccsc1` [Compound 37, 3-[2-(2-N,N-dimethylaminomethylphenyl)carbonyl]thiophene], the inhibition in vivo at 30 mg/kg under setting [1] is 0%, the inhibition in vivo at 30 mg/kg under setting [2] came to 0% and the inhibition in vivo at 30 mg/kg under setting [3] worked out at 0%.
As for `CN(C)Cc1ccccc1C(O)c1ccc(Cl)s1.O=C(O)/C=C/C(=O)O` (centres unmarked) [Compound 16, 5-chloro-2-[-(2-dimethylaminomethylphenyl)-1-hydroxymethyl]thiophene monofumarate], the “% INHIBITION (of paw swelling) HOUR 2” value (30 mg/kg oral, 2 hours) came to 17%. For the same compound, for the setting “30 mg/kg oral, 3 hours”, the “% INHIBITION (of paw swelling) HOUR 3” value was 11%. In addition, the “% INHIBITION (of paw swelling) HOUR 4” value (30 mg/kg oral, 4 hours) turned out to be 0%.
As for `CN(C)Cc1ccccc1C(C)(O)c1ccc(Br)s1` (centres unmarked) [Compound 34, N,N-dimethyl-2-[1-(5-bromothien-2-yl)-1-hydroxyethyl]benzylamine], the inhibition in vivo at 30 mg/kg by setting is: under setting [1], 66%; under setting [2], 49%; under setting [3], 14%.
Consider `CN(C)Cc1ccccc1C(O)c1scc(Br)c1Br` (centres unmarked) [Compound 27, 3,4-dibromo-2-[(2-N,N-dimethylaminomethylphenyl)hydroxymethyl]thiophene hydrochloride], for which the inhibition in vivo at 30 mg/kg is, setting by setting: under setting [1], 39%; under setting [2], 25%; under setting [3], 10%.
The matching figures for `CN(C)Cc1ccccc1C(O)c1cc(Cl)sc1Cl` (centres unmarked) [Compound 25, 2,5-dichloro-3[(2-N,N-dimethylaminomethylphenyl)hydroxymethyl]thiophene hydrochloride]: 68%, 64% and 38%.
The matching figures for `CC(c1ccccc1C(O)c1csc(Br)c1)N(C)C` (centres unmarked) [Compound 35, 5-bromo-3-[2-(1-N,N-dimethylaminoethylphenyl)hydroxymethyl]thiophene]: 58%, 48% and 9%.
As for `CN(C)Cc1ccccc1C(O)c1sc(Cl)cc1Cl` (centres unmarked) [Compound 32, 3,5-dichloro-2-[(N,N-dimethylaminomethylphenyl)hydroxymethyl]thiophene hydrochloride], the inhibition in vivo at 30 mg/kg is, setting by setting: under setting [1], 62%; under setting [2], 47%; under setting [3], 12%.
The matching figures for `CN(C)Cc1ccccc1C(O)c1sccc1Br` (centres unmarked) [Compound 17, 3-bromo-2-[(2-dimethylaminomethylphenyl)hydroxymethyl]thiophene monofumarate]: 49%, 5% and 0%.
In the case of `CC(c1ccccc1C(O)c1ccc(Cl)s1)N(C)C` (centres unmarked) [Compound 36, 5-chloro-2-[2-(1-N,N-dimethylaminoethylphenyl)hydroxymethyl]thiophene hydrochloride], the inhibition in vivo at 30 mg/kg is 52% under setting [1], 15% under setting [2] and 3% under setting [3].
In the case of `CN(C)Cc1ccccc1C(O)c1ccc(Br)s1` (centres unmarked) [Compound 15], the inhibition in vivo at 30 mg/kg by setting is: under setting [1], 63.1%; under setting [2], 47.1%; under setting [3], 26.7%.
On to `CN(C)Cc1ccccc1C(O)c1cc(I)sc1I` (centres unmarked) [Compound 29, 2,5-diiodo-3-[(2-N,N-dimethylaminomethylphenyl)hydroxymethyl]thiophene hydrochloride], for which the inhibition in vivo at 30 mg/kg is, setting by setting: under setting [1], 50%; under setting [2], 29%; under setting [3], 0%.
For `CN(C)Cc1ccccc1C(O)c1ccc(C2(C)OCCO2)s1` (centres unmarked) [Compound 19, 2-[(2-dimethylaminomethylphenyl)hydroxymethyl]-5-(1,1-ethylenedioxyethyl) thiophene], the inhibition in vivo at 30 mg/kg is, setting by setting: under setting [1], 40%; under setting [2], 37%; under setting [3], 11%.
Taken in the same sequence, the figures for `CC(=O)c1ccc(C(O)c2ccccc2CN(C)C)s1` (centres unmarked) [Compound 20, 5-acetyl-2-[(2-dimethylaminomethylphenyl)hydroxymethyl]thiophene] were 12%, 15% and 2%.
As to `CN(C)Cc1ccccc1C(O)c1ccc(Cl)s1` (centres unmarked) [Compound 1, 5-chloro-2-[(2-dimethylaminomethylphenyl)hydroxymethyl]thiophene], the inhibition in vivo at 10 mg/kg came to 54% under setting [4], 23.1% under setting [5] and 17.1% under setting [6]. Besides, the inhibition in vivo at 100 mg/kg under setting [4] was 87.5%, the inhibition in vivo at 100 mg/kg under setting [5] came out at 71.5% and the inhibition in vivo at 100 mg/kg under setting [6] stood at 67.8%.
